In brackets after ≈: the same amount, converted by molar mass.
Assay: Solubility of active ingredient in water
Assay type: physicochemical
Conditions: 23° C., water at pH 7.6

- solubility: 4300 µg/mL (≈ 20.1 mM)
SMILES: NCC(CC(=O)O)c1ccc(Cl)cc1 (stereo not shown) [active ingredient, Baclofen]
